From patent publication US11802120B2, “Fused cyclic urea derivatives as CRHR2 antagonist” (RaQualia Pharma Inc., priority 2018, dated 2023)

target: T1, human CRHR2-alpha (Homo sapiens, UniProt Q13324); assay: cAMP functional assay for human CRHR2 (LANCE Ultra cAMP, TR-FRET); type: cell-based; details: CHO-K1 cells expressing human CRHR2-alpha, agonist human urocortin2 at EC80, cAMP; read-out: IC50 against CRHR2
T1 sequence (Q13324 1-411): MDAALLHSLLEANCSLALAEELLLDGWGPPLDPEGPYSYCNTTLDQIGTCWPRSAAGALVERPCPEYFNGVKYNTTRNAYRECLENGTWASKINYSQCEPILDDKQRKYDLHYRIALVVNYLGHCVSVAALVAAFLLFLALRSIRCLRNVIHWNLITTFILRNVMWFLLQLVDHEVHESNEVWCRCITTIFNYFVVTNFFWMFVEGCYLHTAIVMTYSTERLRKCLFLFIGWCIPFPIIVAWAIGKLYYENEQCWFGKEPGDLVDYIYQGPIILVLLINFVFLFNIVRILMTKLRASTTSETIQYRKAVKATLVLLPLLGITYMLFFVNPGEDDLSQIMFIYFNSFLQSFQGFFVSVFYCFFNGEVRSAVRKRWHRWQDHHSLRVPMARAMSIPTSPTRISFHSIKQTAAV
Procedure, shortened: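 CHO-K1 stable lines; 4,000 cells/well; compound 30 min, 25° C; EC80 agonist (human urocortin2 → CRHR2, CRF → CRHR1) 30 min, 25° C; buffer HBSS/0.1% BSA/0.5 mM IBMX/5 mM Hepes pH 7.4; Eu-cAMP tracer + ULight antibody 60 min; TR-FRET read; IC50 from % inhibition curves.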

IC50, < 300 nM:
Cc1nc2cc(-n3c(=O)n(C[C@H]4CC[C@H](NC(=O)c5cc(Cl)cnc5C)CC4)c4ccccc43)ccc2s1 [Example 645, 5-chloro-2-methyl-N-((1r,4r)-4-((3-(2-methylbenzo[d]thiazol-5-yl)-2-oxo-2,3-dihydro-1H-benzo[d]imidazol-1-yl)methyl)cyclohexyl) nicotinamide]
O=C(N[C@H]1CC[C@H](Cn2c(=O)n(-c3ccc(N4CCNC4=O)nc3)c3ccc(F)cc32)CC1)c1cc(Cl)cnc1C(F)F [Example 736, 5-chloro-2-(difluoromethyl)-N-((1r,4r)-4-((6-fluoro-2-oxo-3-(6-(2-oxoimidazolidin-1-yl)pyridin-3-yl)-2,3-dihydro-1H-benzo[d]imidazol-1-yl)methyl)cyclohexyl) nicotinamide]
O=C(Cn1c(=O)n(C[C@H]2CC[C@H](NC(=O)c3cc(Cl)cnc3C(F)(F)F)CC2)c2ccccc21)c1ccccc1 [Example 285, 5-chloro-N-((1r,4r)-4-((2-oxo-3-(2-oxo-2-phenylethyl)-2,3-dihydro-1H-benzo[d]imidazol-1-yl)methyl)cyclohexyl)-2-(trifluoromethyl)nicotinamide]
O=C(N[C@H]1CC[C@H](Cn2c(=O)n(-c3ccc(N4CCNC4=O)cn3)c3ccccc32)CC1)c1cc(Cl)cnc1C(F)F [Example 717, 5-chloro-2-(difluoromethyl)-N-((1r,4r)-4-((2-oxo-3-(5-(2-oxoimidazolidin-1-yl)pyridin-2-yl)-2,3-dihydro-1H-benzo [d]imidazol-1-yl)methyl)cyclo-hexyl)nicotinamide]
O=C(Cn1c(=O)n(C[C@H]2CC[C@H](NC(=O)c3cc(Cl)ccc3C(F)(F)F)CC2)c2ccccc21)c1ccccc1 [Example 286, 5-chloro-N-((1r,4r)-4-((2-oxo-3-(2-oxo-2-phenylethyl)-2,3-dihydro-1H-benzo[d]imidazol-1-yl)methyl)cyclohexyl)-2-(trifluoromethyl)benzamide]
CNC(=O)c1ccc(-n2c(=O)n(C[C@H]3CC[C@H](NC(=O)c4cc(Cl)cnc4N(C)C)CC3)c3ccccc32)cn1 [Example 328, 5-(3-(((1r,4r)-4-(5-chloro-2-(dimethylamino)nicotinamido)cyclohexyl)methyl)-2-oxo-2,3-dihydro-1H-benzo[d]imidazol-1-yl)-N-methyl-picolinamide]
Cc1ncc(Cl)cc1C(=O)N[C@H]1CC[C@H](Cn2c(=O)n(-c3ccc4c(c3)nnn4CCO)c3ccccc32)CC1 [Example 276, 5-chloro-N-((1r,4r)-4-((3-(1-(2-hydroxyethyl)-1H-benzo[d][1,2,3]triazol-5-yl)-2-oxo-2,3-dihydro-1H-benzo[d]imidazol-1-yl)methyl)cyclohexyl)-2-methylnicotinamide]
Cc1ncc(Cl)cc1C(=O)N[C@H]1CC[C@H](Cn2c(=O)n(Cc3cccc(C#N)c3)c3ccccc32)CC1 [Example 242, 5-chloro-N-((1r,4r)-4-((3-(3-cyanobenzyl)-2-oxo-2,3-dihydro-1H-benzo[d]imidazol-1-yl)methyl)cyclohexyl)-2-methylnicotinamide]
CNC(=O)c1cc(C)c(-n2c(=O)n(C[C@H]3CC[C@H](NC(=O)c4cc(Cl)cnc4C(F)(F)F)CC3)c3ccccc32)cn1 [Example 313, 5-(3-(((1r,4r)-4-(5-chloro-2-(trifluoromethyl)nico-tinamido)cyclohexyl)methyl)-2-oxo-2,3-dihydro-1H-benzo[d]imidazol-1-yl)-N,4-dimethylpicolinamide]
CNc1ccc(-n2c(=O)n(C[C@H]3CC[C@H](NC(=O)c4cc(Cl)cnc4C)CC3)c3ccccc32)c(C)n1 [Example 150, 5-chloro-2-methyl-N-((1r,4r)-4-((3-(2-methyl-6-(methylamino)pyridin-3-yl)-2-oxo-2,3-dihydro-1H-benzo[d]imidazol-1-yl)methyl)cyclohexyl)nicotinamide]
Cc1cc(C#N)c(-n2c(=O)n(C[C@H]3CC[C@H](NC(=O)c4cc(Cl)cnc4C)CC3)c3ccccc32)cn1 [Example 308, 5-chloro-N-((1r,4r)-4-((3-(4-cyano-6-methylpyridin-3-yl)-2-oxo-2,3-dihydro-1H-benzo[d]imidazol-1-yl)methyl)cyclohexyl)-2-methylnicotinamide]
CNc1ncc(-n2c(=O)n(C[C@H]3CC[C@H](NC(=O)c4cc(Cl)cnc4C)CC3)c3ccccc32)cc1C [Example 133, 5-chloro-2-methyl-N-((1r,4r)-4-((3-(5-methyl-6-(methyl-amino)pyridin-3-yl)-2-oxo-2,3-dihydro-1H-benzo[d]imidazol-1-yl)methyl)cyclohexyl) nicotinamide]
Cc1ncc(Cl)cc1C(=O)N[C@H]1CC[C@H](Cn2c(=O)n(-c3ccc(C(=O)NC4COC4)cc3)c3ccccc32)CC1 [Example 130, 5-chloro-2-methyl-N-((1r,4r)-4-((3-(4-(oxetan-3-ylcarbamoyl)phenyl)-2-oxo-2,3-dihydro-1H-benzo[d]imidazol-1-yl)methyl)cyclohexyl)nicotinamide]
Cc1ncc(Cl)cc1C(=O)N[C@H]1CC[C@H](Cn2c(=O)n(-c3ccc(-n4cccn4)cc3)c3ccccc32)CC1 [Example 471, N-((1r,4r)-4-((3-(4-(1H-pyrazol-1-yl)phenyl)-2-oxo-2,3-dihydro-1H-benzo[d]imidazol-1-yl)methyl)cyclohexyl)-5-chloro-2-methylnicotinamide]
COc1ccc(-n2c(=O)n(C[C@H]3CC[C@H](NC(=O)c4cc(Cl)cnc4C)CC3)c3ccccc32)c(C)n1 [Example 149, 5-chloro-N-((1r,4r)-4-((3-(6-methoxy-2-methylpyridin-3-yl)-2-oxo-2,3-dihydro-1H-benzo[d]imidazol-1-yl)methyl)cyclohexyl)-2-methylnicotinamide]
Cc1ncc(Cl)cc1C(=O)N[C@H]1CC[C@H](Cn2c(=O)n(-c3ccc4nn(C)c(C)c4c3)c3ccccc32)CC1 [Example 185, 5-chloro-N-((1r,4r)-4-((3-(2,3-dimethyl-2H-indazol-5-yl)-2-oxo-2,3-dihydro-1H-benzo[d]imidazol-1-yl)methyl)cyclohexyl)-2-methylnicotinamide]
Cc1ncc(Cl)cc1C(=O)N[C@H]1CC[C@H](Cn2c(=O)n(-c3ccc(-c4cocn4)cc3)c3ccccc32)CC1 [Example 635, 5-chloro-2-methyl-N-((1r,4r)-4-((3-(4-(oxazol-4-yl)phenyl)-2-oxo-2,3-dihydro-1H-benzo [d]imidazol-1-yl)methyl)cyclo-hexyl)nicotinamide]
O=C(NCCF)c1ccc(-n2c(=O)n(C[C@H]3CC[C@H](NC(=O)c4cc(Cl)cnc4C(F)(F)F)CC3)c3ccccc32)cn1 [Example 410, 5-(3-(((1r,4r)-4-(5-chloro-2-(trifluoromethyl)nicotinamido)cyclohexyl)methyl)-2-oxo-2,3-dihydro-1H-benzo[d]imidazol-1-yl)-N-(2-fluoroethyl) picolinamide]
O=C(N[C@H]1CC[C@H](Cn2c(=O)n(-c3ccc(NCC(F)(F)F)nc3)c3ccccc32)CC1)c1cc(Cl)cnc1C(F)F [Example 463, 5-chloro-2-(difluoromethyl)-N-((1r,4r)-4-((2-oxo-3-(6-((2,2,2-trifluoroethyl)amino)pyridin-3-yl)-2,3-dihydro-1H-benzo[d]imidazol-1-yl)methyl)cyclohexyl)nicotinamide]
CN(C)c1ccc(-n2c(=O)n(C[C@H]3CC[C@H](NC(=O)c4cc(Cl)cnc4C(F)F)CC3)c3ccccc32)nc1 [Example 648, 5-chloro-2-(difluoromethyl)-N-((1r,4r)-4-((3-(5-(dimethyl-amino)pyridin-2-yl)-2-oxo-2,3-dihydro-1H-benzo[d]imidazol-1-yl)methyl)cyclo-hexyl)nicotinamide]
Cc1ncc(Cl)cc1C(=O)N[C@H]1CC[C@H](Cn2c(=O)n(-c3ccc4c(c3)ncn4C)c3ccccc32)CC1 [Example 206, 5-chloro-2-methyl-N-((1r,4r)-4-((1′-methyl-2-oxo-1′H-[1,5′-bibenzo[d]imidazol]-3(2H)-yl)methyl)cyclohexyl)nico-tinamide]
Cc1ncc(Cl)cc1C(=O)N[C@H]1CC[C@H](Cn2c(=O)n(-c3ccc(N4CC(F)C4)nc3)c3ccccc32)CC1 [Example 145, 5-chloro-N-((1r,4r)-4-((3-(6-(3-fluoroazetidin-1-yl)pyridin-3-yl)-2-oxo-2,3-dihydro-1H-benzo[d]imidazol-1-yl)methyl)cyclo-hexyl)-2-methylnicotinamide]
Cc1ncc(Cl)cc1C(=O)N[C@H]1CC[C@H](Cn2c(=O)n(C3Cc4ccc(Br)cc4C3)c3ccncc32)CC1 (some centres unmarked) [Example 211, N-((1r,4r)-4-((1-(5-bromo-2,3-dihydro-1H-inden-2-yl)-2-oxo-1H-imidazo[4,5-c]pyridin-3(2H)-yl)methyl)cyclohexyl)-5-chloro-2-methylnicotinamide]
